Measured values from US20110064679A1 (priority 2008, published 2011).
Where two headings read alike, the source gives them in different places.

Assays:
Mouse = conditions: cited from earlier work
in vivo = conditions: male, C57BL/6, mouse, in vivo, po
Protocol: (§1) This product was added to the normal diet and consumed over a period of eight hours. Food was selected as the vehicle of choice due to solubility concerns of the Oxaloacetate and because of the anticipated use of the product.
(§2) C57BL/6 mice were used in this test. These mice were used because they are often used for longevity studies. Additionally, there is substantial information on Chronic exposure of the test compound with this breed of mice.
(§3) Male mice were used in the Acute study because male mice were used in the Chronic exposure study. Each animal was housed separately and was 2 months of age.
(§4) 5,000 mg/kg doses of the test compound were added to food, as it is anticipated that this product will be taken with a meal. Specifically,
(§5) Each animal was caged separately. Prior to feeding, the bedding in the animal cage was changed. Food was prepared by dissolving 100 mg of the test compound with each ml of distilled water, then rolling the appropriate amount of food pellets in the amount of water until the waster was absorbed to obtain the proper dosage per animal. The test compound laced food was placed in the cage with the animal at the end of the day. […] Water was provided freely.
(§6) After dosing the animals with the test compound, the animals were returned to a standard Ad Librium diet of food pellets and water.

C57BL/6 mice [1] = assay: in vivo
Protocol: as §1, §2, §3, §4, §5, §6

C57BL/6 mice [2] = conditions: for Average increase in lifespan compared to the control group: daily dosage of 380 mg/kg, male C57BL/6 mice started at 9 months
Protocol: as §1
C57BL/6 mice were used in this test. These mice were used because they are often used for longevity studies.
Male mice were used in the Chronic study because of their linear increase in weight with time. Females are less linear in their increase.
Each animal was housed separately and the test was started with older animals (9 months of age) as human use is primarily anticipated to be in the older populations. The test was continued until all animals died.
25 Male C57BL/6 mice with the same day of birth (plus or minus 1 week) were selected for the test. The mice were evaluated for fasting glucose levels and weight, and broken into three similar groups based on equalization of weight and fasting glucose levels.
Each animal was caged separately in a low stimulus environment and fed one of three diets. The first group was the Control Group, and it was fed an ad Librium balanced diet of mouse food pellets. The second group was calorie restricted 40% from the control group, as established by baseline feeding. […] At the end of 21 weeks, 3 mice from each group were sacrificed and their livers exhumed for genomic testing.
The remaining groups of mice were allowed to live the rest of their lives on the individualized diets for humane reasons. The study has been ongoing for 18 months.
The test compound laced food was placed in the cage with the animal at the end of each day. Water was provided freely.

[3] = test system: genomic expression in the livers; assay: Genomic expression in the livers, Affymatrix Mouse Genome 430 2.0 Array; format: in vivo; conditions: for Percentage of genes moving in same direction as Calorie Restricted Mice (correlation): 1.7 fold expression cut-off
Description: In the calorie restricted mice, 1,763 genes changed in expression as compared to the control group. […] Comparison of common genes changed in expression between the Calorie Restricted group and the Oxaloacetic group indicated 363 genes in common.
If a 1.7 fold expression cut-off is used to eliminate false positives (commonly used in the literature), the correlation between the two groups becomes 100% for the genes in common, which drops down to 36 highly expressed or repressed genes. A table of the genes affected is seen in Table 1.

microbial growth = assay: Preservative function: microbial growth in agar and cornmeal paste; conditions: for microbial growth compared to control preparations: 8 mM in Nematode Growth Agar and cornmeal paste, monitored with a microscope
Description: These compositions where monitored over time with a microscope, and compared to control preparations.

Caenorhabditis elegans = assay: Lifespan toxicity test of preservative / acidizing agent; format: in vivo
Protocol: (§7) The toxicity of the preservative was tested by examining the lifespan of Caenorhabditis elegans, Drosophila melanogaster, and Mus musculus.
(§8) This dropped the pH of the agar from 6.0 to 5.3. The toxicity of the acidizing agent was tested by examining the lifespan of Caenorhabditis elegans.

Drosophila melanogaster = assay: Lifespan toxicity test of preservative; format: in vivo
Protocol: as §7

Mus musculus = conditions: in vivo
Protocol: as §7

[4] = Acidizing function: pH of agar; format: physicochemical
Protocol: as §8

Compound: CC(O)C(=O)O (centres unmarked) [Lactic Acid]
- LD50 (Mouse; Mouse data, injected, subcutaneous injection): 4,500 mg/kg

Compound: O=C(O)CC(O)C(=O)O (centres unmarked) [Malic Acid]
- LD50 (Mouse; mouse, in vivo, po): 1,600 mg/kg

Compound: O=C(O)CC(=O)C(=O)O [Oxaloacetic Acid]
- LD50 at 8 h (in vivo): > 5000 mg/kg
- Survival at limitation dose (C57BL/6 mice [1]; 5,000 mg/kg with food, five male C57BL/6 mice): All animals survived
- LD50 (C57BL/6 mice [1]; male, C57BL/6, mouse, in vivo, po, 8 h): > 5,000 mg/kg
- Increase of residual lifespan over the control group (C57BL/6 mice [2]; 0.4% in food, 380 mg/kg daily, started at age of 9 months): 40%
- Average increase in lifespan compared to the control group (C57BL/6 mice [2]; 0.4% in food): > 20%
- Average increase in lifespan compared to the control group (C57BL/6 mice [2]; 0.4% in food, 380 mg/kg): 25%
- Chronic toxicity compared to the control group (C57BL/6 mice [2]; mouse, in vivo, 380 mg/kg): negative toxicity
- Genes Moving in Opposite Direction as Calorie Restricted Mice ([3]; 1.7 Fold Cut Off): 0
- Genes Moving in Same Direction as Calorie Restricted Mice ([3]; 1.7 Fold Cut Off): 36
- Percentage of genes moving in same direction as Calorie Restricted Mice (correlation) [3]: 100%
- Percentage of genes moving in same direction as Calorie Restricted Mice (correlation) ([3]; listed as Oxaloacetate): 100.0%
- Directional correlation of genomic expression with the calorie restricted group ([3]; 363 genes in common, no cut-off): 98.1%
- OX to C Change ([3]; gene 9130019P20Rik, Affx No. 39136, mouse liver vs control): 1
- Genes changed in expression in common with the Calorie Restricted group ([3]; liver, after 21 weeks): 363
- Number of genes changed in expression as compared with the control group ([3]; liver, after 21 weeks on increasing diet): 765
- microbial growth compared to control preparations (microbial growth): control preparation had more microbial growth
- smallest concentration producing a reduction in microbial activity (microbial growth; even when the salt is used): 8 mM
- lifespan (toxicity of the preservative) (Caenorhabditis elegans): no decrease in lifespan
- lifespan (toxicity of the acidizing agent) (Caenorhabditis elegans; 8 mM in agar): no decrease in lifespan
- lifespan (toxicity of the preservative) (Drosophila melanogaster): no decrease in lifespan
- lifespan (toxicity of the preservative) (Mus musculus): no decrease in lifespan
- smallest concentration producing a decrease in pH [4]: 1 mM
- pH of the agar after addition ([4]; 8 mM in Nematode Growth Agar, dropped from 6.0): 5.3

Compound: O=C([O-])CC(=O)C(=O)O.[Na+] [sodium oxaloacetate salt, sodium oxaloacetate]
- microbial growth compared to control preparations (microbial growth): control preparations had more microbial growth
